The results in this text go back to patent US20100249123A1, “NOVEL BENZAMIDE DERIVATIVES AS MODULATORS OF THE FOLLICLE STIMULATING HORMONE” (ADDEX PHARMA SA, priority 2007, published 2010).

pIC50: −log10 of the molar value.

The target of the assay is T1, rat follicle stimulating hormone receptor (rFSHR) (Rattus norvegicus, UniProt P20395).
T1 construct: expressed in transfected cells
T1 sequence (P20395 18-692): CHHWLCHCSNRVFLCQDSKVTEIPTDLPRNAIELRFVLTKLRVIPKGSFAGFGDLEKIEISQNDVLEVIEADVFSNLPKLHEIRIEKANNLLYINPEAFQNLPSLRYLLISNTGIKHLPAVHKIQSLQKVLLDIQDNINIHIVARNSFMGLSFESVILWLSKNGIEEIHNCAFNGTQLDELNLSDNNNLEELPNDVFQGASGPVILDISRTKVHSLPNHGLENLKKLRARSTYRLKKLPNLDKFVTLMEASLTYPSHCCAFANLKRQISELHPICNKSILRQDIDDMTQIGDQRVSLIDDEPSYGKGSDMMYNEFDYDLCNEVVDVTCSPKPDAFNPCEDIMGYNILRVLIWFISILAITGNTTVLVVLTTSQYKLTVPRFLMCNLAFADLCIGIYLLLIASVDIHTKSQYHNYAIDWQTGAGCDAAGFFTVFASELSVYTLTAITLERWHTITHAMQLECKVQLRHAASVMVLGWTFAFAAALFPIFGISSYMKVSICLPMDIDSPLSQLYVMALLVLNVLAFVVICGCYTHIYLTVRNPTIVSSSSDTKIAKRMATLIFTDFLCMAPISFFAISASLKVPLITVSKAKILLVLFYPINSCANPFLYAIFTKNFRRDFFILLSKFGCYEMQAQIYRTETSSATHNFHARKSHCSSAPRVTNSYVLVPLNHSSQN
The experiment in a line: Intracellular cAMP measurement (HTRF) assay, antagonism of EC70 of hFSH. The format is cell-based. Particulars: HEK293 cells expressing rFSHR, 1 ng/ml hFSH (EC70), read-out: Class (IC50 to antagonise an EC70 of FSH receptors agonist such as hFSH). The text has this: Intracellular cAMP Measurement Assay
The Intracellular cAMP measurement assay is a functional cell-based assay used to study GPCR function. This method relies on a Time-Resolved Fluorescence (HTRF) assay to measure the cAMP accumulation upon receptor-mediated Gs protein activation in cells expressing recombinant GPCR or in cells from native tissues. In brief, this method is a competitive immunoassay between native cAMP produced by cells and the cAMP labeled with a fluorescent tag. The endogenously produced cAMP competes with exogenous added d2-labelled cAMP for the cAMP binding site on a Eu3+ cryptate labelled anti-cAMP antibody. The d2-labelled cAMP and the Eu^3+ labelled antibody produces a basal fluroresence via HTRF and therefore an intracellular increase in unlabelled cAMP is detected as decrease in this signal. cAMP is one of the most important intracellular mediators. Its concentration in cells can be increased upon binding of many hormones to their receptors. The most studied pathway consists in the release of α-subunit GTP-binding proteins following ligand-receptor interaction, which in turn activates or inhibits the ATP/cAMP conversion function of adenylate cyclase enzyme. cAMP is then involved in many complex regulatory processes such as protein kinase activation or ion channel gating. This method is widely used to study receptor activation of G protein in cells over-expressing GPCRs or in native cells, including FSH receptors expressing cells (Gabriel et al., Assay Drug Dev. Technol., 1, 291-303, 2003).
Transfection and cell culture: The cDNA encoding the rat follicle stimulating hormone receptor (rFSHR), (accession number NM_199237, NCBI Nucleotide database browser) was subcloned into an expression vector containing also the hygromycin resistance gene. Transfection of this vector into HEK293 cells with PolyFect reagent (Qiagen) according to supplier's protocol, and hygromycin treatment allowed selection of antibiotic resistant cells which had integrated stably one or more copies of the plasmid. Positive cellular clones expressing rFSHR were identified in a functional assay measuring cAMP production in cells following stimulation by addition of purified human follicle stimulating hormone (hFSH).
HTRF cAMP assay: On the day of the experiment, cells were detached from the Petri dish and distributed in a low volume, black-walled 384-well plate at a density of 5,000 cells/well in an assay buffer containing 1 mM IBMX to prevent cAMP degradation by cytoplasmic phosphodiesterases. The determination of the cAMP accumulation was performed using an HTRF assay (Trinquet et al., Anal. Biochem., 358, 126-135, 2006). Briefly, cells were incubated for 3 min in the presence of increasing concentrations of negative allosteric modulators (from 1 nM to 60 μM) and then 30 min in the presence of 1 ng/ml of hFSH, an agonist of rat FSH receptor, that has been determined in previous experiments to correspond to the EC70, a concentration that gives 70% of the maximal response of the agonist, and is in accordance with published data (Fox et al., Mol. Endocrin., 15, 378-389, 2001). […] Cells were then lysed by adding the HTRF assay components, the europium cryptate-labeled anti-cAMP antibody, and the XL665-labeled cAMP analog, previously diluted in a HEPES buffer (50 mM, pH 7.0) containing 0.8 M potassium fluoride, 0.2% (w/v) BSA, and 1% (v/v) Triton X-100, a percentage of detergent that ensure complete cell lysis. Assay was then incubated for 1 hr at room temperature, and HTRF signal was measured after excitation at 337 nm, and dual emission at 620 and 665 nm, using a RubyStar fluorimeter (BMG Labtechnologies). Moreover, the fluorescence ratio of an appropriate range of known concentrations of cAMP standards was also included on each assay plate to produce a standard cAMP curve. […]
For orientation: Time-resolved FRET reads energy transfer from a long-lived donor to a nearby acceptor.
One may read the pIC50 as −log10 of the IC50, conventionally taken in molar units. Consider “1H-Pyrrolo[2,3-b]pyridine-5-carboxylic acid {2-[4-(3,4-dimethoxy-benzoylamino)-phenyl]-2-methyl-propyl}-amide [Example 201]”, for which the pIC50 was 6.40 to 6.82.
On to `COc1ccc(C(=O)Nc2ccc(C(C)(C)CNC(=O)c3ccco3)cc2)cc1OC` [Example 32], for which the pIC50 is 6.40 to 6.82.
Take `COc1ccc(C(=O)Nc2ccc(C(C)(C)CNC(=O)c3cnn4ccccc34)cc2)cc1OC` [Example 41]: the pIC50 is more than 6.82.
Regarding `COc1ccc(C(=O)Nc2ccc(C(C)(C)CNC(=O)c3ccccn3)cc2)cc1OC` [Example 74], the pIC50 was 6.40 to 6.82.
The figure for `COc1ccc(C(=O)Nc2ccc(C(C)(C)C#N)c(C)c2)cc1OC` [Example 95, N-[4-(Cyano-dimethyl-methyl)-3-methyl-phenyl]-3,4-dimethoxy-benzamide] is 6.40 to 6.82; for `COc1ccc(C(=O)Nc2ccc(C(C)(C)C#N)c(C(F)(F)F)c2)cc1OC` [Example 99, N-[4-(Cyano-dimethyl-methyl)-3-trifluoromethyl-phenyl]-3,4-dimethoxy-benzamide] it is 6.40 to 6.82; for `COc1ccc(C(=O)Nc2ccc(C(C)(C)CNC(=O)c3c[nH]c4ccccc34)cc2)cc1OC` [Example 101, 1H-Indole-3-carboxylic acid{2-[4-(3,4-dimethoxy-benzoylamino)-phenyl]-2-methyl-propyl}-amide] it is 6.40 to 6.82.
Then `COc1ccc(C(=O)Nc2cccc(C3(CNC(=O)c4nn(C)c5ccccc45)CCCC3)c2)cc1OC` [Example 102, 1-Methyl-1H-indazole-3-carboxylic acid{1-[3-(3,4-dimethoxy-benzoylamino)-phenyl]-cyclopentylmethyl}-amide], with not above 6.00.
For the compound `COc1ccc(C(=O)Nc2ccc(C(C)(C)CNC(=O)c3cn(C(C)=O)c4ccccc34)cc2)cc1OC` [Example 104, 1-Acetyl-1H-indole-3-carboxylic acid{2-[4-(3,4-dimethoxy-benzoylamino)-phenyl]-2-methyl-propyl}-amide], the pIC50 was 6.00 to 6.40.
As to `COc1ccc(C(=O)Nc2ccc(C(C)(C)CNC(=O)c3n[nH]c4ccccc34)c(C)c2)cc1OC` [Example 109, 1H-Indazole-3-carboxylic acid{2-[4-(3,4-dimethoxy-benzoylamino)-2-methyl-phenyl]-2-methyl-propyl}-amide], the pIC50 is 6.40 to 6.82.
As to `COc1ccc(C(=O)Nc2ccc(C(C)(C)CNC(=O)c3nn(C)c4ccccc34)c(C)c2)cc1OC` [Example 110, 1-Methyl-1H-indazole-3-carboxylic acid{2-[4-(3,4-dimethoxy-benzoylamino)-2-methyl-phenyl]-2-methyl-propyl}-amide], the pIC50 is 6.40 to 6.82.
As for `COc1ccc(C(=O)Nc2ccc(C(C)(C)CNC(=O)c3n[nH]c4ccccc34)c(Cl)c2)cc1OC` [Example 113, 1H-Indazole-3-carboxylic acid{2-[2-chloro-4-(3,4-dimethoxy-benzoylamino)-phenyl]-2-methyl-propyl}-amide], the pIC50 was 6.40 to 6.82.
As to `COc1ccc(C(=O)Nc2cc(Cl)c(C(C)(C)C#N)c(Cl)c2)cc1OC` [Example 120, N-[3,5-Dichloro-4-(cyano-dimethyl-methyl)-phenyl]-3,4-dimethoxy-benzamide], the pIC50 is 6.40 to 6.82.
Consider `COc1ccc(C(=O)Nc2ccc(C(C)(C)CNC(=O)c3nn(C)c4ccccc34)c(Cl)c2)cc1OC` [Example 121, 1-Methyl-1H-indazole-3-carboxylic acid{2-[2-chloro-4-(3,4-dimethoxy-benzoylamino)-phenyl]-2-methyl-propyl}-amide], for which the pIC50 is 6.40 to 6.82.
As for `COc1ccc(C(=O)Nc2ccc(Cl)c(C(C)(C)C#N)c2)cc1OC` [Example 125, N-[4-Chloro-3-(cyano-dimethyl-methyl)-phenyl]-3,4-dimethoxy-benzamide], the pIC50 was not above 6.00.
On to `COc1ccc(C(=O)Nc2ccc(C(C)(C)CNC(=O)c3cc(C)[nH]n3)cc2)cc1OC` [Example 127], for which the negative logarithm of the IC50 (pIC50) was 6.00 to 6.40.
`COc1ccc(C(=O)Nc2ccc(C(C)(C)C#N)c(-c3cccnc3)c2)cc1OC` [Example 132, N-[4-(Cyano-dimethyl-methyl)-3-pyridin-3-yl-phenyl]-3,4-dimethoxy-benzamide]: the pIC50 was 6.40 to 6.82.
On to `CCc1cc(NC(=O)c2ccc(OC)c(OC)c2)ccc1C(C)(C)C#N` [Example 133, N-[4-(Cyano-dimethyl-methyl)-3-ethyl-phenyl]-3,4-dimethoxy-benzamide], for which the pIC50 is more than 6.82.
With `COc1ccc(C(=O)Nc2ccc(C(C)(C)CNC(=O)c3ccc4[nH]ccc4c3)cc2)cc1OC` [Example 142], the negative-log IC50 (pIC50) was 6.40 to 6.82.
For the compound `COc1ccc(C(=O)Nc2ccc(C(C)(C)C#N)c(-c3ccccn3)c2)cc1OC` [Example 183, N-[4-(Cyano-dimethyl-methyl)-3-pyridin-2-yl-phenyl]-3,4-dimethoxy-benzamide], the pIC50 was not above 6.00.
As for `COc1ccc(C(=O)Nc2ccc(C(C)(C)CNC(=O)c3cnc4ncccn34)cc2)cc1OC` [Example 185], the negative logarithm of the IC50 (pIC50) is 6.00 to 6.40.
In the case of `COc1ccc(C(=O)Nc2ccc(C(C)(C)CNC(=O)c3cn4cccnc4n3)cc2)cc1OC` [Example 186], the pIC50 was not above 6.00.
For the compound `COCCn1cc(C(=O)NCC(C)(C)c2ccc(NC(=O)c3ccc(OC)c(OC)c3)cc2)c2cc(F)ccc21` [Example 191, 5-Fluoro-1-(2-methoxy-ethyl)-1H-indole-3-carboxylic acid {2-[4-(3,4-dimethoxy-benzoylamino)-phenyl]-2-methyl-propyl}-amide], the pIC50 is 6.40 to 6.82.
Then `COc1ccc(C(=O)Nc2ccc(C(C)(C)CNC(=O)c3cn(CCCN(C)C)c4ccc(F)cc34)cc2)cc1OC` [Example 192, 1-(3-Dimethylamino-propyl)-5-fluoro-1H-indole-3-carboxylic acid {2-[4-(3,4-dimethoxy-benzoylamino)-phenyl]-2-methyl-propyl}-amide], with not above 6.00; and `COc1ccc(C(=O)Nc2ccc(C(C)(C)CCNC(=O)c3cnc4ccccn34)cc2)cc1OC` [Example 194, Imidazo[1,2-a]pyridine-3-carboxylic acid {3-[4-(3,4-dimethoxy-benzoylamino)-phenyl]-3-methyl-butyl}-amide], with 6.40 to 6.82.
As for `COc1ccc(C(=O)Nc2ccc(C(C)(C)CCNC(=O)c3nc4cccnc4[nH]3)cc2)cc1OC` [Example 196, 3H-Imidazo[4,5-b]pyridine-2-carboxylic acid {3-[4-(3,4-dimethoxy-benzoylamino)-phenyl]-3-methyl-butyl}-amide], the negative logarithm of the IC50 (pIC50) is 6.40 to 6.82.
